According to PubChem BioAssay AID1996:
In brackets after ≈: the same amount, converted by molar mass.

Conditions: buffer; pH 7.4; 200.0 µM

| SMILES | solubility kinetic |
| --- | --- |
| Cc1ccc(C(=O)NCCNC(=O)COc2ccccc2Cl)cn1 | > 52.2 µg/mL |
| O=C(COc1ccc(F)cc1)NCCNC(=O)COc1ccc(F)cc1 | 11.2 µg/mL (≈ 30.7 µM) |
| Cc1onc(-c2ccccc2Cl)c1C(=O)Nc1cccc(S(=O)(=O)N2CCOCC2)c1 | 2 µg/mL (≈ 4.33 µM) |
| O=C(Nc1ccncc1)C1CC(=O)N(c2ccc(F)cc2)C1 (stereo unspecified) | 39.3 µg/mL (≈ 131 µM) |
| O=[N+]([O-])c1ccc(O)c(Nc2ncnc3ccccc23)c1 | 1.4 µg/mL (≈ 4.96 µM) |
| CCOc1ccc(CN2CCC(Cc3ccccc3)CC2)cc1 | 24.3 µg/mL (≈ 78.5 µM) |
| Cc1c(C)n(C)c2ccc(C(=O)NCCCN3CCCC3)cc12 | > 47 µg/mL |
| COc1ccccc1OCCNC(=O)c1ccco1 | 33.4 µg/mL (≈ 128 µM) |
| COc1cc(SC)ccc1C(=O)NCCN1CCOCC1 | > 46.6 µg/mL |
| CC1=CSC2=NS(=O)(=O)CCN12 | > 30.6 µg/mL |
| NC(=O)C1CC(=O)N(c2ccc(OCc3ccc([N+](=O)[O-])cc3)cc2)C1 (stereo unspecified) | 20.4 µg/mL (≈ 57.4 µM) |
| O=C1C(Cc2ccc(O)cc2)NC(=S)N1C1CCCCC1 (stereo unspecified) | 44.9 µg/mL (≈ 147 µM) |
| COc1ccc(C(=O)Nc2ccncc2)cc1[N+](=O)[O-] | 36 µg/mL (≈ 132 µM) |
| O=[N+]([O-])c1ccccc1S(=O)(=O)NC1CCCCCCC1 | 20.1 µg/mL (≈ 64.3 µM) |
| CCOC(=O)c1cn(C2CC2)c2c(F)c(F)c(F)cc2c1=O | 42.7 µg/mL (≈ 137 µM) |
| Cc1ccc(-c2cc(C(=O)NCC3CCCO3)c3ccccc3n2)cc1C (stereo unspecified) | 4.7 µg/mL (≈ 13 µM) |
| CC(=O)C1=C(O)C(=O)N(c2cccnc2)C1c1cccc([N+](=O)[O-])c1 (stereo unspecified) | > 50.9 µg/mL |
| COC(=O)c1[nH]c2ccccc2c1NC(=O)C(C)N1CC(C)OC(C)C1 (stereo unspecified) | > 53.9 µg/mL |
| CN1CC(=O)N2[C@H](c3ccc4c(c3)OCO4)c3[nH]c4ccccc4c3C[C@@H]2C1=O | 3.2 µg/mL (≈ 8.22 µM) |
| CN(C)C(=O)c1cc2cc(Br)ccc2s1 | 7.4 µg/mL (≈ 26 µM) |
| N#Cc1c(NCc2ccccc2)ccnc1Cl | 20.2 µg/mL (≈ 82.9 µM) |
| CC(C)c1c(O)nc(SCCOc2ccc(Cl)cc2)[nH]c1=O | 44.7 µg/mL (≈ 131 µM) |

| SMILES | solubility kinetic |
| --- | --- |
| CCN(C(=O)COC(=O)c1ccccc1O)c1cccc2ccccc12 | 3.5 µg/mL (≈ 10 µM) |
| CCOC(=O)c1c(C)nc(C)c(C(=O)OCC)c1-c1cccc(N)c1 | 42.1 µg/mL (≈ 123 µM) |
| CN(C)/C=C/c1[nH]c(=O)[nH]c(=O)c1[N+](=O)[O-] | > 33.9 µg/mL |
| Cc1ccc(NC(=O)c2cc(=O)[nH]c3ccccc23)cc1 | 1.6 µg/mL (≈ 5.75 µM) |
| O=C(CNC(=O)c1ccc(C(F)(F)F)cc1)NC1CC1 | > 42.9 µg/mL |
| COc1ccc(NC(=O)c2cnc(SC)nc2C)c(OC)c1 | > 47.9 µg/mL |
| Cn1ccnc1C(=O)Cc1ccc([N+](=O)[O-])cc1 | 35.2 µg/mL (≈ 144 µM) |
| CCC(NC(=S)NC1CCCCC1)c1ccccc1 (stereo unspecified) | 3.8 µg/mL (≈ 13.7 µM) |
| Cc1onc(C(=O)Nc2cccc(C(F)(F)F)c2)c1[N+](=O)[O-] | 32.4 µg/mL (≈ 103 µM) |
| OC(CNc1nc(C(F)(F)F)nc2ccccc12)c1ccccc1 (stereo unspecified) | 6.3 µg/mL (≈ 18.9 µM) |
| CN(CCC1CCOCC1)Cc1nc(Cc2ccccc2F)no1 | > 50 µg/mL |
| COC(=O)CCC(=O)NC(=S)Nc1ccc(S(=O)(=O)Nc2cc(C)on2)cc1 | 57.4 µg/mL (≈ 135 µM) |
| Cc1onc(-c2c(F)cccc2Cl)c1C(=O)N=C(N)N1CC(C)OC(C)C1 (stereo unspecified) | 0.8 µg/mL (≈ 2.03 µM) |
| Cc1ccc(S(=O)(=O)N2CCCCC2)cc1 | 20 µg/mL (≈ 83.6 µM) |
| CN(C)/C(=N\S(=O)(=O)c1ccccc1)c1ccccc1 | > 43.3 µg/mL |
| O=C(COC(=O)/C=C/c1cccc(Cl)c1)Nc1c(F)cccc1F | 6.3 µg/mL (≈ 17.9 µM) |
| CC(=O)c1cccc(NC(=O)Nc2ccc3c(c2)OCO3)c1 | 3.1 µg/mL (≈ 10.4 µM) |
| CC(=O)Nc1ccc(NC(=O)c2c([N+](=O)[O-])cnn2C)cc1 | > 45.5 µg/mL |
| Cc1cccc(CNC(=O)C2CCC(=O)N(C3CC3)C2)c1 (stereo unspecified) | > 43 µg/mL |
| CN1CCN(C(=O)c2cc(=O)c3cc(Cl)ccc3o2)CC1 | > 46 µg/mL |
| CC(C)c1ccc(OCc2ccc(C(=O)N(C)C)o2)cc1 | 33.2 µg/mL (≈ 116 µM) |
| Cn1cc(C(=O)NC2CC2)c2ccccc21 | 31.9 µg/mL (≈ 149 µM) |

| SMILES | solubility kinetic |
| --- | --- |
| COC(=O)Cn1ccc(-c2ccc(Cl)cc2)c(C#N)c1=O | > 45.4 µg/mL |
| CCC1CCCCN1S(=O)(=O)c1ccccc1 (stereo unspecified) | 31.5 µg/mL (≈ 124 µM) |
| COc1ccc(CNC(=O)N2CCc3ccccc3C2)cc1 | > 44.5 µg/mL |
| O=C(CCCNC(=O)c1ccc(Cl)cc1)Nc1cccc(F)c1 | 5.6 µg/mL (≈ 16.7 µM) |
| Cc1ccnc(SCc2ccc(C(=O)O)cc2)n1 | > 39 µg/mL |
| CC(=O)c1sc(NC(=O)c2ccc(Br)o2)nc1C | 12.8 µg/mL (≈ 38.9 µM) |
| CC(C)c1csc2nc3n(c(=O)c12)CCCCC3 | 32.9 µg/mL (≈ 125 µM) |
| O=C(NC(=S)/C(=C1\CCCCCN1)[N+](=O)[O-])c1ccccc1 | 44.9 µg/mL (≈ 141 µM) |
| CC(C)(C)NC(=O)c1cccnc1Sc1ccccc1 | > 43 µg/mL |
| CC(=NCc1ccco1)c1c(O)n(-c2ccccc2C)c(=O)[nH]c1=O | > 50.9 µg/mL |
| COC(=O)c1sccc1NC(=O)c1cccs1 | < 0.6 µg/mL |
| CN(C)c1ccc(C(=O)OCC(=O)N2CCCC2)cc1 | > 41.5 µg/mL |
| O=C(/C=C/c1ccc(OCCCF)cc1)N1CCOCC1 | > 44 µg/mL |
| O=C(O)c1cc(S(=O)(=O)NCC2COc3ccccc3O2)ccc1Cl (stereo unspecified) | > 57.6 µg/mL |
| C=CCc1cccc(CNc2cnc3ccccc3c2)c1O | < 0.3 µg/mL |
| COC(=O)c1cn(C(=O)c2ccc(Cl)cc2)c2ccccc12 | 1.6 µg/mL (≈ 5.1 µM) |
| COc1ccc(S(=O)(=O)N2CCOCC2)cc1NC(=O)CCCOc1ccccc1 | 40.9 µg/mL (≈ 94.1 µM) |
| CC(C)CNC(=O)CO/N=C/c1ccccc1Cl | > 40.3 µg/mL |
| O=C(COC(=O)[C@@H]1CCCN1C(=O)c1cccs1)Nc1cccc(Cl)c1 | 26.9 µg/mL (≈ 68.5 µM) |
| COCCn1c(C(C)C)nc2ccccc21 | > 32.7 µg/mL |
| CC(NCCC1(C(C)C)CCOC(C)(C)C1)c1cccs1 (stereo unspecified) | > 46.4 µg/mL |
| Cc1cc(C)c(C#N)c(SC(C(=O)NC(C)(C)C)c2ccccc2)n1 (stereo unspecified) | < 0.3 µg/mL |

| SMILES | solubility kinetic |
| --- | --- |
| O=C(NCCNCc1cccs1)c1ccccc1F | 37.6 µg/mL (≈ 135 µM) |
| C#CCN1C(=O)S/C(=C\c2cc3c(cc2OC)OCO3)C1=O | 1.1 µg/mL (≈ 3.47 µM) |
| CC(C)CNC(=O)COc1ncnc2sccc12 | > 39.8 µg/mL |
| CC(C)Oc1ccc(C(=O)OCC(=O)c2ccc[nH]2)cc1 | 15.1 µg/mL (≈ 52.6 µM) |
| Cc1cc(Cl)ccc1NC(=S)NC(C)(C)C | 28.3 µg/mL (≈ 110 µM) |
| Cc1ccc2c(c1)/C(=C/c1ccccc1)C(=O)N2 | 2.3 µg/mL (≈ 9.78 µM) |
| CCC(O)c1nc2ccccc2n1CCc1ccccc1 (stereo unspecified) | 17.1 µg/mL (≈ 61 µM) |
| O=S(=O)(Nc1ccccn1)c1cc(Cl)ccc1Cl | 9.2 µg/mL (≈ 30.3 µM) |
| COc1ccc(OC)c2nc(-c3cccnc3)ccc12 | > 39.9 µg/mL |
| Cc1nnc(SCC(=O)Nc2ccccc2)n(N)c1=O | > 43.7 µg/mL |
| CCC(C)(C)NC(=O)/C=C/c1ccccc1[N+](=O)[O-] | 31.4 µg/mL (≈ 120 µM) |
| CC1CN(C(=S)Nc2cccc(F)c2)CC(C)O1 (stereo unspecified) | 40.2 µg/mL (≈ 150 µM) |
| CCOC(=O)C1=C(C)NC(=O)NC1c1c(OC)ccc2ccccc12 (stereo unspecified) | 0.7 µg/mL (≈ 2.06 µM) |
| CCN(CC(=O)NCc1ccc(F)cc1)C(=O)/C=C/c1ccco1 | > 49.6 µg/mL |
| Cc1cccc(CCNC(=O)c2oc3c(C)c(C)ccc3c2C)n1 | 1.9 µg/mL (≈ 5.89 µM) |
| COc1ccc(NC(=O)CN2C(=O)NC3(CCCc4ccccc43)C2=O)c(OC)c1 (stereo unspecified) | > 61.4 µg/mL |
| CCOC(=O)CNC(=O)c1cccnc1Oc1ccc(Cl)cc1 | 20.2 µg/mL (≈ 60.3 µM) |
| CCC(=O)N1CCN(c2ccnc3cc(Cl)ccc23)CC1 | 40.4 µg/mL (≈ 133 µM) |
| CCOC(=O)C1(C)Oc2cccnc2NC1=O (stereo unspecified) | 35.2 µg/mL (≈ 149 µM) |
| N#CCNC(=O)C1c2ccccc2Oc2ccccc21 | 4.1 µg/mL (≈ 15.5 µM) |
